# Assay results published in patent publication US20240208944A1, “Quinazoline Derivatives, Pharmaceutical Compositions, and Therapeutic Uses Related to Nox Inhibition” (Emory University, priority 2021, published 2024).
# Structures can show the parent of a compound that is named as a salt. Where two headings read alike, the source gives them in different places.
# Tests used:
# NOX-4 = NOX-4 (Homo sapiens (Human), UniProt Q9NPH5); test: NOX-4 inhibition (Nox assays); type: biochemical
# NOX-2 = NOX-2 (Homo sapiens (Human), UniProt P04839); test: NOX-2 inhibition (Nox assays); type: biochemical
# Sequence of NOX-2 (P04839 2-570, species assumed): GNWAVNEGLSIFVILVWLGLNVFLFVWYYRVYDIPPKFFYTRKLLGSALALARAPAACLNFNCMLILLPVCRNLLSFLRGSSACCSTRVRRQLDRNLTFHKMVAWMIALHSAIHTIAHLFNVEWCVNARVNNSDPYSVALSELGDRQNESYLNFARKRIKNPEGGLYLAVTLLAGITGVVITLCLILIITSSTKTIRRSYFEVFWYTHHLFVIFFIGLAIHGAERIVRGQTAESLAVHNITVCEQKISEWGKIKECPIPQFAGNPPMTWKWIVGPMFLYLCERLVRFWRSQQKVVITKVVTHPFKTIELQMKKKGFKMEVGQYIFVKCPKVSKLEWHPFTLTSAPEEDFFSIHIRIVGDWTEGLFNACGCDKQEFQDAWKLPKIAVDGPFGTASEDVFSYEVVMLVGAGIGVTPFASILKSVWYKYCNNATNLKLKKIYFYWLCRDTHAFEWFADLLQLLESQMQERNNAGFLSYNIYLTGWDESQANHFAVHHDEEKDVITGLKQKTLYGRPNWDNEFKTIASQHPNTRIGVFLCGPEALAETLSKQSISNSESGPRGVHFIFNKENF
# Sequence of NOX-2 (P13498 whole entry partner, species assumed): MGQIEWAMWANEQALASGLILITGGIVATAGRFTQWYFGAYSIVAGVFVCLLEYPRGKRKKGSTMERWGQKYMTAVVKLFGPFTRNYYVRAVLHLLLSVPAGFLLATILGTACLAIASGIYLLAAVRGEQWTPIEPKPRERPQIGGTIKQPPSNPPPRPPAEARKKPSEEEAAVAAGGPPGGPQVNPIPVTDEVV
# Cytotoxicity CC50 = type: cell-based
# [1] = In vivo pharmacokinetics in Sprague Dawley rats; design: species or system rat; settings: for half-life: male SD rats
# From the text: The compound has a brain-to-plasma ratio >10.
# In Vivo Pharmacokinetics for Compound TG15-132S in Sprague Dawley (SD) Rats.
# [2] = Mouse liver microsomal stability; type: in vitro ADME; settings: mouse liver microsomes; read-out: MLM T1/2
# Description: (§1) The aqueous solubility, liver microsomal stability, and in vivo pharmacokinetics were determined. […] These derivatives have requisite stability in mouse liver microsomes.
# [3] = Aqueous (water) solubility; type: physicochemical; settings: for solubility: water
# Description: as §1
# THP1 monocytic cells = test: PMA-induced mRNA levels of NOX2, its subunits and inflammatory markers in THP1 cells; type: cell-based; settings: THP1 cells treated with PMA 100 ng/ml
# From the text: These markers are suppressed by the treatment of NOX2 inhibitor TG15-132.HCI.
# Sequence of NOX-4 (Q9NPH5 whole entry, species assumed): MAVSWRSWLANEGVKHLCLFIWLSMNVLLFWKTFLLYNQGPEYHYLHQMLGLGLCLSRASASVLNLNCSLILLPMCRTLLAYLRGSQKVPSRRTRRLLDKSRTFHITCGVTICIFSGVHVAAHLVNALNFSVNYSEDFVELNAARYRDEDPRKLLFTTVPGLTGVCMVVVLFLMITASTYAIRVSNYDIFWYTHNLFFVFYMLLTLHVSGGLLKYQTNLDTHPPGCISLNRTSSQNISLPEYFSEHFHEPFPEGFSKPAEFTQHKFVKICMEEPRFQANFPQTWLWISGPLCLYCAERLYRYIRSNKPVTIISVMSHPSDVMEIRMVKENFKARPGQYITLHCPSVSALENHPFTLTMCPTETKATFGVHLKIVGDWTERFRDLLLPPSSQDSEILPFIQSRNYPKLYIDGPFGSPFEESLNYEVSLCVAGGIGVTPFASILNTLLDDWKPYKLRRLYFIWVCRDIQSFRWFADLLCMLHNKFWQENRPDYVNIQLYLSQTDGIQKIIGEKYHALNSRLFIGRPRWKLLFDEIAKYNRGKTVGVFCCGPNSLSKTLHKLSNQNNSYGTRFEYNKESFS
# Sequence of NOX-4 (P13498 whole entry partner, species assumed): as the sequence (P13498 whole entry partner, species assumed) above
IC50 (NOX-4) [µM],IC50 (NOX-2) [µM],SMILES,CC50 (Cytotoxicity CC50) [µM],also measured
8.3,3.3,"O=C(CCCn1c(=S)[nH]c2ccc(F)cc2c1=O)N1CCN(c2ccccc2O)CC1 [LY4-123S, 6-fluoro-3-(4-(4-(2-hydroxyphenyl)piperazin-1-yl)-4-oxobutyl)-2-thioxo-2,3-dihydroquinazolin-4(1H)-one]",,
,> 100,"CN(C)CCCn1c(SCc2ccccn2)nc2ccc(F)cc2c1=O [LY5-10, 3-(3-(dimethylamino)propyl)-6-fluoro-2-((pyridin-2-ylmethyl)thio)quinazolin-4(3H)-one]",,
> 50,2.3,"O=C(CCCn1c(=S)[nH]c2ccccc2c1=O)N1CCN(c2ccccc2O)CC1 [Compd. 43, 3-(4-(4-(2-hydroxyphenyl)piperazin-1-yl)-4-oxobutyl)-2-thioxo-2,3-dihydroquinazolin-4(1H)-one]",> 20,
,> 100,"CN(C)CCCn1c(SCCc2ccccn2)nc2ccc(Cl)cc2c1=O [TG15-124-HCl, 6-chloro-3-(3-(dimethylamino)propyl)-2-((2-(pyridin-2-yl)ethyl)thio)quinazolin-4(3H)-one]",> 10,
,> 100,"CN(C)CCCn1c(SCCCc2ccccn2)nc2ccc(F)cc2c1=O [LY5-11, 3-(3-(dimethylamino)propyl)-6-fluoro-2-((3-(pyridin-2-yl)propyl)thio)quinazolin-4(3H)-one]",,
26,3.3,"CN(C)CCCn1c(SCCc2c[nH]c3ccccc23)nc2ccc(F)cc2c1=O.Cl [TG15-132S, 2-((2-(1H-indol-3-yl)ethyl)thio)-3-(3-(dimethylamino)propyl)-6-fluoroquinazolin-4(3H)-one, hydrochloride]",> 20,"clearance rate ([1]; SD rats, single 20 mg/kg IP): 32.75 mL/min/kg; half-life ([1]; Sprague-Dawley, rat, 20 mg/kg IP, brain, read-out: half-life in the brain): > 5 h; half-life ([1]; Sprague-Dawley, rat, 20 mg/kg IP, plasma, read-out: half-life in plasma): > 5 h; Kp ([1]; male, Sprague-Dawley, brain and plasma, rat, 20 mg/kg IP, read-out: In vivo B/P Ratio (brain-to-plasma ratio)): > 10; In vivo B/P Ratio (brain-to-plasma ratio) ([1]; rat, 20 mg/kg IP, hydrochloride): >10; half-life [2]: 0.4 h; water solubility (in words) [3]: excellent water solubility; solubility [3]: 1200 µM; mRNA levels of NOX2 (gp91phox), p47phox, p67phox, IL-1beta and TNF (THP1 monocytic cells): suppressed"
,2.4,"CC(C)N1CCN(CCCn2c(SCCc3c[nH]c4ccccc34)nc3ccc(F)cc3c2=O)CC1 [TG17-57, 2-((2-(1H-indol-3-yl)ethyl)thio)-6-fluoro-3-(3-(4-isopropylpiperazin-1-yl)propyl)quinazolin-4(3H)-one]",,
,> 50,"CN(C)CCCn1c(SCCc2ccccn2)nc2ccc(F)cc2c1=O [TG15-131-HCl, 3-(3-(dimethylamino)propyl)-6-fluoro-2-((2-(pyridin-2-yl)ethyl)thio)quinazolin-4(3H)-one]",,
32,1.65,"CN(C)CCCn1c(SCCc2c[nH]c3ccccc23)nc2ccc(Cl)cc2c1=O.Cl [TG15-139S, 2-((2-(1H-indol-3-yl)ethyl)thio)-6-chloro-3-(3-(dimethylamino)propyl)quinazolin-4(3H)-one. Hydrochloride]",> 10,"Kp at 8 h ([1]; male, Sprague-Dawley, rat, brain and plasma, SD rats, single 20 mg/kg IP, up to 8 h, read-out: brain-to-plasma ratio up to 8 h): > 10; Kp ([1]; male, Sprague-Dawley, rat, brain and plasma, SD rats, single 20 mg/kg IP, read-out: brain-to-plasma ratio): > 23; half-life [2]: 1.25 h; water solubility (in words) [3]: excellent water solubility; solubility [3]: 2350 µM"
